# Measured values reported in patent EP1229025A1, “NOVEL QUINAZOLINE DERIVATIVES” (Japan Energy Corporation, priority 1999, dated 2001).
# Test system: TNF-α production
# Test: TNF-α production inhibiting test using human PBMC (LPS stimulus, ELISA)
# Type: cell-based
# Details: LPS 10 ng/ml, 16 hours, ELISA of culture supernatants
# Procedure: Example 145: TNF-α production inhibiting test using human PBMC (peripheral blood mononuclear cells)
# Preparation of human PBMC
# The blood of a healthy person was taken with a vacuum blood-collecting tube (Nipro neotube) and diluted up to two-fold with physiological saline (Otsuka Pharmaceuticals). To the diluted blood was added 6% dextran T-500 (prepared after dissolution in physiological saline (Otsuka Pharmaceuticals) and sterilization with an autoclave) so as to make a final concentration of 1%. The solution was subjected to tumble mixing and allowed to stand at room temperature for 30 minutes to precipitate the erythrocytes. The supernatant was collected and subjected to centrifugation at 20 °C and at 1,500 rpm for 10 minutes. The cells were suspended in 3 ml of RPMI1640 culture medium (Asahi Technogllas) and overlaid on the solution surface of 3 ml Lymphoprep (NYCOMED). Further, with 1.5 ml of RPMI1640 culture medium being added to the tube which had contained the cell suspension liquid, the cells attached to the tube, which had remained uncollected, were suspended for collection and overlaid on the Lymphoprep previously mentioned. This operation was repeated again. After centrifugation at 20 °C and at 2,000 rpm for 30 minutes, there was collected a fraction of peripheral blood mononuclear cells present in the boundary surface between the Lymphoprep and the RPMI1640 culture medium. The cells were washed twice with 10 ml RPMI1640 culture medium to remove the Lymphoprep and then suspended in a RPMI1640 culture medium added with 10% bovine fetal serum (IRVINE SCIENTIFIC), 100 U/ml penicillin and 100 µg/ml streptomycin (hereinafter referred to as cRPMI1640 culture medium). The number of the cells was measured by Tuerk dying, and the cells, after adjustment to 3 × 10^6 cells/ml, were planted in 100 µl/well on a 96-well plate (FALCON). The cells were cultured at 37 °C under 5%CO2 atmosphere for about 5 hours.
# Induction of TNF-α production by LPS stimulus
# LPS (E.coli 0111:B4, DIFCO), which had been prepared to 10 mg/ml with water and kept at -20, was diluted to 100 µg/ml with cRPMI1640 culture medium and subjected to sterile filtration. The 100 µg/ml LPS was diluted with cRPMI1640 culture medium to prepare 20 ng/ml LPS. A compound to be tested which was dissolved in DMSO at 1,000-fold concentration was diluted to 500-fold with cRPMI1640 culture medium containing 20 ng/ml LPS and added in 100 µl/well to the cells which had been planted on the previously mentioned 96-well plate (final concentration of LPS: 10 ng/ml). For use as the control group, the solutions were made by diluting DMSO of the same volume as in the test compounds with cRPMI1640 culture medium containing 20 ng/ml LPS, and they were added to the cells. These cells were cultured at 37 °C under 5%CO2 atmosphere for 16 hours.
# Determination of TNF-α activity (ELISA method)
# To the 96-well plate the mouse anti-human TNF-α antibody (prepared to 2 µg/ml with Coating buffer*^1) was added so as to make 100 µl/well and allowed to stand at 4 °C overnight. After 5-times washing with Wash buffer*^2 (300µl/well), the Blocking buffer*^3 was added to the solutions, which were allowed to stand 37 °C for 2 hours. The culture supernatants were diluted up to 5-fold in the plate (supernatant 20 µl being added to 80 µl of cRPMI1640 culture medium). Simultaneously, for using for a calibration curve, a series of dilution of recombinant human TNF-α was prepared arid allowed to stand 37 °C for 1 hour. After 5-times washing with Wash buffer (300 µl /well), biotinylated rabbit anti-human TNF-α antibody (prepared to 0.25 µg/ml with Antibody diluent*^4) was added so as to make 100 µl /well and allowed to stand at 37 °C for 1 hour. After 5-times washing with Wash buffer (300 µl /well), Streptavidin-Horseradish peroxidase(prepared to 1:4000 with Antibody diluent) was added to make 100 µl /well and allowed to stand at 37 °C for 15 minutes. […]
row,IC50 [nM],Compound
1,200,"CCOC(=O)c1ccc(CNc2ncnc3cc(N4CCNCC4)c([N+](=O)[O-])cc23)cc1 [Example 129, 4-[(4-ethoxycarbonyl)benzylamino]-6-nitro-7-(piperazin-1-yl)quinazoline]"
2,1100,"COc1ccc(CCNc2ncnc3cc(N4CCNCC4)c([N+](=O)[O-])cc23)cc1 [Example 78, 4-[2-(4-methoxyphenyl)ethylamino]-6-nitro-7-(piperazin-1-yl)quinazoline]"
3,400,"O=[N+]([O-])c1cc2c(NCCc3ccccc3)ncnc2cc1N1CCNCC1 [Example 10, 6-nitro-4-[2-(phenyl)ethylamino]-7-(piperazin-1-yl)quinazoline]"
4,2300,"O=[N+]([O-])c1cc2c(NCCc3cccnc3)ncnc2cc1N1CCNCC1 [Example 57, 6-nitro-7-(piperazin-1-yl)-4-[2-(3-pyridyl)ethylamino]quinazoline]"
5,1800,"COc1cc(CNc2ncnc3cc(N4CCNCC4)c([N+](=O)[O-])cc23)cc(OC)c1OC [Example 69, 6-nitro-7-(piperazin-1-yl)-4-(3,4,5-trimethoxylbenzylamino)quinazoline]"
6,2100,"O=[N+]([O-])c1cc2c(NCCc3ccc(Cl)cc3)ncnc2cc1N1CCCNCC1 [Example 2, 4-[2-(4-chlorophenyl)ethylamino]-7-(homopiperazin-1-yl)-6-nitroquinazoline]"
7,1400,"CN1CCN(c2cc3ncnc(NCCc4ccc(Cl)cc4)c3cc2[N+](=O)[O-])CC1 [Example 3, 4-[2-(4-chlorophenyl)ethylamino]-7-(4-methylpiperazin-1-yl)-6-nitroquinazoline]"
8,300,"COc1ccc(CNc2ncnc3cc(N4CCNCC4)c([N+](=O)[O-])cc23)cc1 [Example 67, 4-(4-methoxylbenzylamino)-6-nitro-7-(piperazin-1-yl)quinazoline]"
9,2300,"Fc1ccc(CCCNc2ncnc3cc(N4CCNCC4)c(F)cc23)cc1 [Example 119, 6-fluoro-4-[3-[(4-fluoro)phenyl]propylamino]-7-(piperazin-1-yl)quinazoline]"
10,2500,"Nc1ccc(CCNc2ncnc3cc(N4CCNCC4)c([N+](=O)[O-])cc23)cc1 [Example 81, 4-[2-(4-anilino)ethylamino]-6-nitro-7-(piperazin-1-yl)quinazoline]"
11,500,"O=[N+]([O-])c1cc2c(NCCCc3ccc4c(c3)OCO4)ncnc2cc1N1CCNCC1 [Example 127, 4-[3-[(3,4-methylenedioxy)phenyl]propylamino]-6-nitro-7-(piperazin-1-yl)quinazoline]"
12,600,"O=[N+]([O-])c1cc2c(NCCc3ccc(F)cc3)ncnc2cc1N1CCNCC1 [Example 37, 4-[2-(4-fluorophenyl)ethylamino]-6-nitro-7-(piperazin-1-yl)quinazoline]"
13,400,"O=[N+]([O-])c1cc2c(NCCc3ccc(Br)cc3)ncnc2cc1N1CCNCC1 [Example 72, 4-[2-(4-bromophenyl)ethylamino]-6-nitro-7-(piperazin-1-yl)quinazoline]"
14,400,"O=[N+]([O-])c1cc2c(NCc3ccc(F)cc3)ncnc2cc1N1CCNCC1 [Example 25, 4-(4-fluorobenzylamino)-6-nitro-7-(piperazin-1-yl)quinazoline]"
15,2300,"COc1ccc(CCNc2ncnc3cc(N4CCNCC4)c([N+](=O)[O-])cc23)cc1OC [Example 79, 4-[2-(3,4-dimethoxyphenyl)ethylamino]-6-nitro-7-(piperazin-1-yl)quinazoline]"
16,700,"O=[N+]([O-])c1cc2c(NCCCc3ccc(F)cc3)ncnc2cc1N1CCNCC1 [Example 126, 4-[3-[(4-fluoro)phenyl]propylamino]-6-nitro-7-(piperazin-1-yl)quinazoline]"
17,2500,"Fc1cc2c(NCc3ccc4c(c3)OCCO4)ncnc2cc1N1CCNCC1 [Example 121, 4-[(3,4-ethylenedioxy)benzylamino]-6-fluoro-7-(piperazin-1-yl)quinazoline]"
18,1200,"COc1ccccc1CNc1ncnc2cc(N3CCNCC3)c([N+](=O)[O-])cc12 [Example 65, 4-(2-methoxylbenzylamino)-6-nitro-7-(piperazin-1-yl)quinazoline]"
19,700,"COc1cccc(CNc2ncnc3cc(N4CCNCC4)c([N+](=O)[O-])cc23)c1 [Example 66, 4-(3-methoxylbenzylamino)-6-nitro-7-(piperazin-1-yl)quinazoline]"
20,600,"O=[N+]([O-])c1cc2c(NCCc3cccc(Cl)c3)ncnc2cc1N1CCNCC1 [Example 71, 4-[2-(3-chlorophenyl)ethylamino]-6-nitro-7-(piperazin-1-yl)quinazoline]"
21,1900,"O=[N+]([O-])c1cc2c(NCCc3ccc(Cl)cc3)ncnc2cc1N1CCN(CCO)CC1 [Example 5, 4-[2-(4-chlorophenyl)ethylamino]-7-[4-(2-hydroxyethyl)piperazin-1-yl)-6-nitroquinazoline]"

row,Compound,IC50 [nM]
1,"Fc1cc2c(Nc3ccc4c(c3)OCO4)ncnc2cc1N1CCNCC1 [Example 116, 6-fluoro-4-[(3,4-methylenedioxy)anilino]-7-(piperazin-1-yl)quinazoline]",3000

# Test system: IL-5 production
# Test: IL-5 production inhibiting test in OVA-stimulated spleen cells of immunised mouse (ELISA)
# Type: cell-based
# Details: 72 h, spleen cells of OVA-immunised BALB/c-mouse, OVA 0.5 mg/ml, 3 days
# Procedure: (§1) Example 146: IL-4 and IL-5 production inhibiting test
# (§2) A 6-weeks-old BALB/c-mouse (Nippon Charles River) was bred preparatively for 1 week and given at the day 0 and day 14 intraperitoneal injection of 100 µl PBS to give immunity which PBS contained 0.1 mg/ml of Ovalbumin(OVA) and 40 mg/ml of aluminum hydroxide. At the day 21 the spleen was taken out from the mouse. The spleen was dissected with a pincette in cooled PBS, passed through a mesh and subjected to centrifugation at 4 °C at 1,500 rpm for 5 minutes. The cells was added with 5 ml of 0.2% NaCI to destroy erythrocytes, and then was made isotonic by adding 5 ml of 1.6% of NaCl. After centrifugation at 4 °C, 1,500 rpm for 5 minutes, the cells were washed twice with 10 ml ofRPMI1640 culture medium. The obtained spleen cells were suspended in cRPMI1640 medium, and the number of the cells was measured by Tuerk dying. After being adjusted to 1 × 10^7 cells/ml, the cells were planted in 100 µl/well on a 96-well plate (FALCON). The cells were cultured at 37 °C under 5% CO2 atmosphere for about 4 hours. OVA was prepared to 10 mg/ml with cRPMI1640 culture medium and subjected to sterile filtration. The 10 mg/ml OVA was diluted with cRPMI1640 culture medium to give 1 mg/ml OVA. A compound to be tested which was dissolved in DMSO in at 1,000-fold concentration was diluted up to 500-fold with cRPMI1640 culture medium containing 1 mg/ml OVA and added in 100 µl/well to the cells which had been planted on the previously mentioned 96-well plate (final concentration of OVA: 0.5 mg/ml). As the controls, the solutions were made by diluting DMSO of the same volume as with the test compounds with cRPMI1640 culture medium containing 1 mg/ml OVA, and they were added to the cells. These cells were cultured at 37 °C under 5%CO2 atmosphere for 3 days. IL-4 and IL-5 in the culture supernatants after 3 days were quantitatively determined by ELISA method. IL-4 and IL-5 were quantitatively determined using IL-4 Development Kit (Genzyme Techne) and mouse IL-5 MiniKit (ENDOGEN), respectively. The production inhibiting rates of each tested compound against IL-4 are shown in Table 22, those against IL-5 in Table 23.
row,IC50 [nM],Compound
1,1700,"CCOC(=O)c1ccc(CNc2ncnc3cc(N4CCNCC4)c([N+](=O)[O-])cc23)cc1 [Example 129, 4-[(4-ethoxycarbonyl)benzylamino]-6-nitro-7-(piperazin-1-yl)quinazoline]"
2,900,"O=[N+]([O-])c1cc2c(NCc3cccs3)ncnc2cc1N1CCNCC1 [Example 48, 6-nitro-7-(piperazin-1-yl)-4-[(2-thienyl)methylamino]quinazoline]"

# Test system: IL-4 production
# Test: IL-4 production inhibiting test in OVA-stimulated spleen cells of immunised mouse (ELISA)
# Type: cell-based
# Details: 72 h, spleen cells of OVA-immunised BALB/c-mouse, OVA 0.5 mg/ml, 3 days
# Procedure: as §1, §2
row,IC50 [nM],Compound
1,100,"CCOC(=O)c1ccc(CNc2ncnc3cc(N4CCNCC4)c([N+](=O)[O-])cc23)cc1 [Example 129, 4-[(4-ethoxycarbonyl)benzylamino]-6-nitro-7-(piperazin-1-yl)quinazoline]"
2,100,"O=[N+]([O-])c1cc2c(NCc3ccco3)ncnc2cc1N1CCNCC1 [Example 51, 4-[(2-furyl)methylamino]-6-nitro-7-(piperazin-1-yl)quinazoline]"
3,100,"O=[N+]([O-])c1cc2c(NCc3cccs3)ncnc2cc1N1CCNCC1 [Example 48, 6-nitro-7-(piperazin-1-yl)-4-[(2-thienyl)methylamino]quinazoline]"
